Reference: US12331042B2, “Compounds suitable for the treatment and prophylaxis of muscle wasting and other conditions” (priority 2019, dated 2025)
“Also recorded” adds a separate entry of the source.

Experiments:
MuRF1 E3 ligase activity = MuRF1 E3 ligase activity (Homo sapiens, UniProt Q969Q1); assay: Inhibition of MuRF1 E3 ligase activity (ubiquitination, Western blot); assay type: biochemical; settings: 20-100 μmol/L compound, 1 h at 37° C., based on ubiquitination patterns
Procedure: Compounds were then assessed for effects on MuRF1 E3 ligase activity directed to titin or to MuRF1 itself (self-ubiquitination) by mixing 75 nmol/L UBE1 (Boston Biochem), 1 μmol/L UbcH5c (Boston Biochem), 100 μmol/L Ubiquitin, 4 mmol/L ATP, 100 nmol/L Titin A168-170 with 20-100 μmol/L of respective compounds. Reactions were started by addition of 220 nmol/L MuRF1, followed by 1 h at 37° C., SDS PAGE and Western blot analysis with MuRF1 and titin specific antibodies. All reactions also included 5% DMSO.

[1] = tested on: monocrotaline (MCT)-treated C57BL/6 mice; assay: Pulmonary hypertension mouse model, test series 2; assay type: in vivo; settings: MCT+compound (0.1 weight-% in chow) vs MCT, 8 weeks
Procedure: The test series 2 were performed analogous to test series 1. Briefly, Three groups of mice were included in this study: 1) saline-treated mice (sham; n=10); 2) monocrotaline (MCT)-treated mice fed with normal chow (MCT; n=10); and 3) MCT-treated mice fed with MuRF1 inhibitor chow (MCT+compound; n=10 for each compound). 8 weeks old C57BL/6 mice were subcutaneously injected weekly with either MCT (600 mg/kg) or a matched volume of saline for 8 weeks. The MCT+compound group started receiving the inhibitor chow 1 week prior to the MCT injections, whereas the sham and MCT groups were fed an identical chow but without the addition of the selected compound. The compound concentration in the chow was 0.1 weight-%, resulting in a daily compound intake per mouse of about 3 mg. Body weight was recorded every week for each mouse. Mice were sacrificed after 8 weeks treatment. At sacrifice, examination and tissue analysis were performed as described in test series 1.

ICR-DIO male mice = assay: Glucose and insulin regulation in DIO mice (fasting glucose, OGTT, ITT); assay type: in vivo
Excerpt: Analogously to example 2.7, diabetes was induced by a high-fructose high-fat diet (HFD) for 4 months in DIO mice. The mice developed increased fasting glucose and insulin resistance. Control group animals received a normal rodent diet (regular diet). Weight loss was then induced during a 30 days test period. In a first stage, the animals were fed normal rodent diet for 16 days. Then in a second stage the animals received a low-calory diet for 14 days. Two days after start of the first stage, the diet was supplemented with MyoMed-203 (at 1 g compound/1 kg food).
Test design: ICR-DIO male mice were randomly assigned to groups of 8-10 animals each. Three control groups were included: Control group of mice without obesity (control; regular diet (RD); n=10), obese mice fed with high-fructose high-fat diet during the entire study period (DIO HFD; n=8); and obese mice with initiated weight loss (DIO control; n=8).
Determining the level of blood glucose was performed after 6-hour fasting. An On Call Plus glucometer (Acon Laboratories, Inc., USA) and specific test strips (REF G133-111) were used for determination of glucose levels. Blood was obtained from the tail vein by incision of the tail tip. 5-6 μl of blood were used for each assay.
For oral glucose tolerance test (OGTT), mice were orally treated with glucose at dose of 2 g/kg at the dose volume of 10 ml/kg after a 6-hour fasting. Glucose measurements were performed immediately before treatment and at 15, 30, 60 and 120 min after glucose administration. The AUC describing the rate of blood glucose output in each mouse during the test was calculated using the formula: […]
For insulin tolerance test (ITT), mice were injected intraperitoneally with recombinant human insulin solution (Lilly, France; REF C620001K) at the dose of 0.75 or 0.60 IU/[…] of body weight in the volume of 5 ml/kg after 6-hour fasting. Glucose measurements were performed immediately before treatment and at 15, 30, 60 and 120 min after insulin administration. The results of the rate of blood glucose output were expressed as area under the curve (AUC).

Sequence of MuRF1 E3 ligase activity (Q969Q1 whole entry): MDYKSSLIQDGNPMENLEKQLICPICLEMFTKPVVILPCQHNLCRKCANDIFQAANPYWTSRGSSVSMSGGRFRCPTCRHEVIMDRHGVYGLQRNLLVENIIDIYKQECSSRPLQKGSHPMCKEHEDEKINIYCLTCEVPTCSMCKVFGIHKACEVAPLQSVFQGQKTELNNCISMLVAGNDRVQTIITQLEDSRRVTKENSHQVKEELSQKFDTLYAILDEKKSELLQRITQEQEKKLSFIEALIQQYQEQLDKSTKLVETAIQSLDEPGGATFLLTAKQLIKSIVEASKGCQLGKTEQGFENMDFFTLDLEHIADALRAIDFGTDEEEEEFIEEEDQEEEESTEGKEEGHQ

| Compound | inhibition of MuRF1 E3 ligase activity (MuRF1 E3 ligase activity) | loss of skeletal muscle mass (EDL, TA wet weight; diaphragm maximum force) [1] | right ventricle hypertrophy [1] | blood glucose level after 6-hour fasting (ICR-DIO male mice; 1 g compound/1 kg food, vs DIO control, throughout the treatment period) | hypoglycemic effect according to OGTT (ICR-DIO male mice; after 14 days of weight loss and treatment) | blood glucose at 30 minutes of OGTT (ICR-DIO male mice; day 14, vs DIO control) | OGTT calculated area under the glucose elimination curve (ICR-DIO male mice; day 28) | glucose level at 120 min of OGTT (ICR-DIO male mice; day 28, vs all control groups) | glucose level at 120 minutes after insulin injection (ITT) (ICR-DIO male mice; vs all control groups) |
| --- | --- | --- | --- | --- | --- | --- | --- | --- | --- |
| CNC(=O)NC(=O)C(C)OC(=O)c1ccc(COc2ccc3c(C)cc(=O)oc3c2)cc1 (stereo not shown) [MyoMed-946-8, [1-methyl-2-(methylcarbamoylamino)-2-oxo-ethyl] 4-[(4-methyl-2-oxo-chromen-7-yl)oxymethyl]benzoate] | significantly inhibit MuRF1 E3 ligase activity |  |  |  |  |  |  |  |  |
| Cc1cc(=O)oc2cc(OCc3ccc(C(=O)OC(C)C(=O)NC(N)=O)cc3)ccc12 (stereo not shown) [MyoMed-946-5, (1-methyl-2-oxo-2-ureido-ethyl) 4-[(4-methyl-2-oxo-chromen-7-yl)oxymethyl]benzoate] | significantly inhibit MuRF1 E3 ligase activity |  |  |  |  |  |  |  |  |
| Cc1cc(=O)oc2cc(OCc3ccc(C(=O)OCC(=O)NC(=O)NCc4ccccn4)cc3)ccc12 [MyoMed-203, [2-oxo-2-(2-pyridylmethylcarbamoylamino)ethyl] 4-[(4-methyl-2-oxo-chromen-7-yl)oxymethyl]benzoate] |  | most pronounced effect | attenuated; also recorded: attenuate the development of right ventricle hypertrophy | significantly lower | mild hypoglycemic effect | tended to be lower | tended to be lower | significant decrease in the glucose level | significant decrease of glucose level |
